Assay type in all cases: functional
In test [1] the test system is Pseudomonas aeruginosa. The experiment in a line: Antibacterial activity against Pseudomonas aeruginosa PAO1 assessed as inhibition of bacterial growth incubated for 18 hrs by two fold broth microdilution assay.
For test [2], the system named is Escherichia coli. The experiment in a line: Antibacterial activity against Escherichia coli ATCC 25922 assessed as inhibition of bacterial growth incubated for 18 hrs by two fold broth microdilution assay. Background: Dilution methods test growth across graded concentrations, often in twofold steps.
Test [3] has as its system Acinetobacter baumannii. The experiment in a line: Antibacterial activity against Acinetobacter baumannii ATCC 17978 assessed as inhibition of bacterial growth incubated for 18 hrs by two fold broth microdilution assay.
In test [4] the test system is Pseudomonas aeruginosa. The experiment in a line: Antibiotic adjuvant activity against Pseudomonas aeruginosa PAO1 assessed as fold potentiation incubated for 18 hrs in presence of Rifampicin by two fold broth microdilution checkerboard assay.
In test [5] the test system is Acinetobacter baumannii. The experiment in a line: Antibiotic adjuvant activity against Acinetobacter baumannii ATCC 17978 assessed as fold potentiation incubated for 18 hrs in presence of Rifampicin by two fold broth microdilution checkerboard assay.
Test [6] concerns Escherichia coli. The experiment in a line: Antibiotic adjuvant activity against Escherichia coli ATCC 25922 assessed as rifampicin MIC incubated for 18 hrs in presence of Rifampicin by two fold broth microdilution checkerboard assay.
Test [7] has as its system Acinetobacter baumannii. The experiment in a line: Antibiotic adjuvant activity against Acinetobacter baumannii ATCC 17978 assessed as rifampicin MIC incubated for 18 hrs in presence of Rifampicin by two fold broth microdilution checkerboard assay.

Converted amounts (≈) assume the structure as drawn.

Consider `NC[C@H]1O[C@H](O[C@H]2[C@H](OC(=O)Nc3ccccc3)[C@@H](O[C@H]3O[C@H](COC(=O)Nc4ccccc4)[C@@H](OC(=O)Nc4ccccc4)[C@H](N)[C@H]3OC(=O)Nc3ccccc3)[C@H](N)C[C@@H]2N)[C@H](N)C[C@@H]1OC(=O)Nc1ccccc1.O=C(O)C(F)(F)F`, for which the MIC was 64 µg/mL with Pseudomonas aeruginosa [1]; 32 µg/mL in the test with Escherichia coli [2]; greater than 128 µg/mL with Acinetobacter baumannii [3]; 0.008 µg/mL in the test on Escherichia coli [6]; 0.0312 µg/mL with Acinetobacter baumannii [7]. The fold change (FC) is 1 in the test with Pseudomonas aeruginosa [4] and 16 in the test on Acinetobacter baumannii [5].
Consider `Cl.NC[C@H]1O[C@H](O[C@H]2[C@H](OCc3cc(Cl)cc(Cl)c3)[C@@H](O[C@H]3O[C@H](COCc4cc(Cl)cc(Cl)c4)[C@@H](OCc4cc(Cl)cc(Cl)c4)[C@H](N)[C@H]3OCc3cc(Cl)cc(Cl)c3)[C@H](N)C[C@@H]2N)[C@H](N)C[C@@H]1OCc1cc(Cl)cc(Cl)c1`, for which the MIC with Pseudomonas aeruginosa [1], in the test with Escherichia coli [2] and with Acinetobacter baumannii [3] was greater than 128 µg/mL in each case.
For the molecule `CC(C)(C)c1ccc(COC[C@H]2O[C@H](O[C@@H]3[C@@H](OCc4ccc(C(C)(C)C)cc4)[C@H](O[C@H]4O[C@H](CN)[C@@H](OCc5ccc(C(C)(C)C)cc5)C[C@H]4N)[C@@H](N)C[C@H]3N)[C@H](OCc3ccc(C(C)(C)C)cc3)[C@@H](N)[C@@H]2OCc2ccc(C(C)(C)C)cc2)cc1.Cl`, the MIC with Pseudomonas aeruginosa [1], in the test with Escherichia coli [2] and in the test with Acinetobacter baumannii [3] was greater than 128 µg/mL each time.
Regarding `Cl.NC[C@H]1O[C@H](O[C@H]2[C@H](OCc3ccc(Cl)cc3)[C@@H](O[C@H]3O[C@H](COCc4ccc(Cl)cc4)[C@@H](OCc4ccc(Cl)cc4)[C@H](N)[C@H]3OCc3ccc(Cl)cc3)[C@H](N)C[C@@H]2N)[C@H](N)C[C@@H]1OCc1ccc(Cl)cc1`, the MIC in the test with Pseudomonas aeruginosa [1], with Escherichia coli [2] and with Acinetobacter baumannii [3] was greater than 128 µg/mL throughout.
Take `Cl.NC[C@H]1O[C@H](O[C@H]2[C@H](OCc3ccc(-c4ccccc4)cc3)[C@@H](O[C@H]3O[C@H](COCc4ccc(-c5ccccc5)cc4)[C@@H](OCc4ccc(-c5ccccc5)cc4)[C@H](N)[C@H]3OCc3ccc(-c4ccccc4)cc3)[C@H](N)C[C@@H]2N)[C@H](N)C[C@@H]1OCc1ccc(-c2ccccc2)cc1`: the MIC in the test on Pseudomonas aeruginosa [1], in the test with Escherichia coli [2] and in the test with Acinetobacter baumannii [3] was greater than 128 µg/mL throughout.
As for `NC[C@H]1O[C@H](O[C@H]2[C@H](O)[C@@H](O[C@H]3O[C@H](CO)[C@@H](O)[C@H](N)[C@H]3O)[C@H](N)C[C@@H]2N)[C@H](N)C[C@@H]1O` [TOBRAMYCIN], the figures for the minimum inhibitory concentration (MIC) in the test on Pseudomonas aeruginosa [1], in the test with Escherichia coli [2] and in the test with Acinetobacter baumannii [3] were 1 µg/mL (≈ 2.14 µM), 2 µg/mL (≈ 4.28 µM) and 0.5 µg/mL (≈ 1.07 µM), respectively.
Regarding `CC(C)CCOC[C@H]1O[C@H](O[C@@H]2[C@@H](OCCC(C)C)[C@H](O[C@H]3O[C@H](CN)[C@@H](OCCC(C)C)C[C@H]3N)[C@@H](N)C[C@H]2N)[C@H](OCCC(C)C)[C@@H](N)[C@@H]1OCCC(C)C.Cl`, the MIC was determined as 16 µg/mL in the test with Pseudomonas aeruginosa [1], 4 µg/mL in the test on Escherichia coli [2], 16 µg/mL with Acinetobacter baumannii [3] and 0.004 µg/mL in the test with Acinetobacter baumannii [7]. Besides, the “fold change (FC)” value is listed as 16 with Pseudomonas aeruginosa [4] and 2048 in the test with Acinetobacter baumannii [5].
COLISTIN: the MIC amounted to 1 µg/mL with Pseudomonas aeruginosa [1], 0.5 µg/mL with Escherichia coli [2] and 0.5 µg/mL in the test with Acinetobacter baumannii [3].
As for `NC[C@H]1O[C@H](O[C@H]2[C@H](OC(=O)Nc3ccc(Cl)cc3)[C@@H](O[C@H]3O[C@H](COC(=O)Nc4ccc(Cl)cc4)[C@@H](OC(=O)Nc4ccc(Cl)cc4)[C@H](N)[C@H]3OC(=O)Nc3ccc(Cl)cc3)[C@H](N)C[C@@H]2N)[C@H](N)C[C@@H]1OC(=O)Nc1ccc(Cl)cc1.O=C(O)C(F)(F)F`, the MIC came to 64 µg/mL in the test on Pseudomonas aeruginosa [1]; 32 µg/mL with Escherichia coli [2]; 32 µg/mL in the test on Acinetobacter baumannii [3]; 0.5 µg/mL in the test with Escherichia coli [6]; 0.004 µg/mL with Acinetobacter baumannii [7]. Besides, the fold change (FC) in the test on Pseudomonas aeruginosa [4] turned out to be 1; with Acinetobacter baumannii [5], 16.

One may read the MIC as the lowest concentration that inhibits growth of the organism.

(Values after ChEMBL document CHEMBL5335843, “Application of tobramycin benzyl ether as an antibiotic adjuvant capable of sensitizing multidrug-resistant Gram-negative bacteria to rifampicin” (2024).)
